Laboratory results: patent US20230255974A1, “USE OF THYROMIMETICS FOR THE TREATMENT OF CANCER” (THE UNIVERSITY OF VERMONT, priority 2020, published 2023)

Tested on: SW1736 cells (SW-EV, SW-TRβ)
Assay: Growth assay (live cell imaging), T3
Assay type: cell-based, human
Protocol: Culture of thyroid cell lines. Anaplastic thyroid cancer cell lines (SW1736 and KTC-2) were cultured in RPMI 1640 growth media with L-glutamine (300 mg/L), sodium pyruvate and nonessential amino acids (1%) (Cellgro/Mediatech), supplemented with 10% fetal bovine serum (Life Technologies) and penicillin-streptomycin ([…]) (Cellgro/Mediatech) at 37° C., 5% CO2, and 100% humidity. The cell lines were generously provided by Dr. John Copland III (Mayo Clinic). Lentivirally modified SW1736 cells were generated as recently described (Gillis et al., “Thyroid Hormone Receptor β Suppression of RUNX2 is Mediated by Brahma Related Gene 1 Dependent Chromatin Remodeling.” Endocrinol. 159(6):2484-94 (2018), which is hereby incorporated by reference in its entirety) with either an empty vector (SW-EV) or to overexpress TRβ (SW-TRβ). SW-EV and SW-TRβ were grown in the above conditions with the addition of 1 μg/ml puromycin (Gold Bio). All cells were authenticated by the Vermont Integrative Genomics Resource at the University of Vermont using short tandem repeat profiles and Promega GenePrint10 System (SW1736, May 2019; KTC-2, October 2019).
Growth Assays. Cell growth was measured either through live cell imaging or by cell counting at discrete points. Live cell imaging was used to assess the growth kinetics of SW-EV and SW-TRβ. To perform live cell imaging, 5000 cells were plated per well in 24 well plates. After 24 hours in phenol red free, charcoal stripped media, media was supplemented with either 10^−8 M T3 or equivolume vehicle (NaOH). Every two hours cells were imaged with a Lionheart automated microscope (BioTek) and quantified with Gen5 software (BioTek). The cells entered the log phase of growth at approximately 48 hours, and the portion of the curve following this point was used to calculate the doubling time of the cells. In order to measure growth manually, 25,000 cells were plated per well in a six well plate. […] Every 24 hours cell counts were assessed by hemocytometer.

Compound: N[C@@H](Cc1cc(I)c(Oc2ccc(O)c(I)c2)c(I)c1)C(=O)O [T3, (2S)-2-amino-3-[4-(4-hydroxy-3-iodophenoxy)-3,5-diiodophenyl]propanoic acid]
- growth rate (SW-EV, 10^−8 M T3 vs vehicle): modestly decreased the growth rate
- cellular growth (SW-TRβ (TRβ overexpression), 10^−8 M T3): profoundly reduced cellular growth
- doubling time (SW-TRβ, T3 treated): greatest doubling time
